Read-outs that look alike come from different tables or passages of the source.
Legend:
[1] = tested on: hepatitis B virus surface antigen (HBs); assay: Hepatitis-vaccine enhancing activity (adjuvant activity): anti-HBs IgG in mouse serum by ELISA; format: in vivo, female CDF1 mice; settings: Experiment 1, 5000-fold dilution
Method in brief: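 Female CDF1 mice (n=7) given 0.2 ml i.p. of compound in lipid microspheres (1 mg/ml) mixed 1:1 with HBs antigen (50 μg/ml), boosted identically at 3 weeks. Sera from weekly fundus bleeds before and after boost. Anti-HBs IgG measured by ELISA.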

[2] = tested on: L-1210 mouse leukemia cells; assay: Activation of macrophages (growth inhibition of tumor cells by intraperitoneal macrophages of treated mice, MTT assay); format: cell-based; settings: macrophages taken 3 days after i.p. 0.2 ml of 500 μg/ml, macrophage:L-1210 20:1, 72 hours
Experimental: A compound of the present invention was dissolved in lipidmicrosphere to obtain a solution in a concentration of 500μg/ml, and 0.2 ml of such solution was intraperitoneally administered to each mouse in one group consisting of seven female CDF1 mice. Intraperitoneal macrophages obtained three days after the administration and L-1210 mouse leukemia cells were mixed in the ratio of cell numbers of 20:1, respectively. Two hundred μl of the mixture was placed in each well of one sheet of 96 well microtiter plate. After 72 hours, the increase of the cell number in each well was determined by a MTT assay method. The ratio of the cell number for the mixture of the L-1210 cells and the macrophage relative to the cell number for the L-1210 cells only(growth inhibitory ratio) was determined, and the results are shown in Table 3.

[3] = tested on: influenza HA vaccine (B/Nagasaki/1/87 strain); format: in vivo, female CDF1 mice; settings: Experiment 1, 5000-fold dilution
[4] = 1 W after i.p. administration, compound in lipidmicrosphere + HBs
[5] = 4 W (after secondary stimulation at 3 weeks)
[6] = 5 W (after secondary stimulation at 3 weeks)
[7] = 1 W after i.p. administration, compound in lipidmicrosphere + HA vaccine

Structure (SMILES): CCCCCCCCCCCCCCC(CCCCCCCCCCCCCC)C(=O)O[C@H]1O[C@H](COC(=O)CCCCCCCCCCCCC)[C@@H](O)[C@H](O[C@H](C)C(=O)N[C@@H](C)C(=O)N[C@H](CCC(=O)OC)C(N)=O)[C@H]1NC(C)=O [Example 6, N-[2-0-{2-Acetamido-2,3-dideoxy-6-0-tetradecanoyl-1-0-(2-tetradecylhexadecanoyl)-α-D-glucopyranos-3-yl}-D-lactoyl]-L-alanyl-D-isoglutamine methylester]
- Anti-HBs IgG antibody level in serum (ELISA absorbance at 415 nm) [1, 4]: 0 O.D 415 nm
- Anti-HBs IgG antibody level in serum (ELISA absorbance at 415 nm) ([1]; 2 W): 0.020 ± 0.002 O.D 415 nm
- Anti-HBs IgG antibody level in serum (ELISA absorbance at 415 nm) ([1]; 3 W): 0.069 ± 0.001 O.D 415 nm
- Anti-HBs IgG antibody level in serum (ELISA absorbance at 415 nm) [1, 5]: 0.477 ± 0.005 O.D 415 nm
- Anti-HBs IgG antibody level in serum (ELISA absorbance at 415 nm) [1, 6]: 0.529 ± 0.005 O.D 415 nm
- Growth inhibitory ratio of L-1210 mouse leukemia cells [2]: 63.0%
- Anti HA serum antigen value (average value ± S.D.) [3, 7]: 0.001 ± 0.001 O.D 415 nm
- Anti HA serum antigen value (average value ± S.D.) ([3]; 2 W): 0.013 ± 0.002 O.D 415 nm
- Anti HA serum antigen value (average value ± S.D.) ([3]; 3 W): 0.259 ± 0.004 O.D 415 nm
- Anti HA serum antigen value (average value ± S.D.) [3, 5]: 1.025 ± 0.013 O.D 415 nm
- Anti HA serum antigen value (average value ± S.D.) [3, 6]: 1.159 ± 0.013 O.D 415 nm

Structure (SMILES): CCCCCCCCCCCCCCCCCC(=O)OC[C@H]1O[C@H](OC(=O)C(CCCCCCCCCCCCCC)CCCCCCCCCCCCCC)[C@H](NC(C)=O)[C@@H](O[C@H](C)C(=O)N[C@@H](C)C(=O)N[C@H](CCC(=O)OC)C(N)=O)[C@@H]1O [Example 7, N-[2-0-{2-Acetamido-2,3-dideoxy-6-0-octadecanoyl-1-0-(2-tetradecylhexadecanoyl)-α-D-glucopyranos-3-yl}-D-lactoyl]-L-alanyl-D-isoglutamine methylester]
- Anti-HBs IgG antibody level in serum (ELISA absorbance at 415 nm) [1, 4]: 0 O.D 415 nm
- Anti-HBs IgG antibody level in serum (ELISA absorbance at 415 nm) ([1]; 2 W): 0.016 ± 0.003 O.D 415 nm
- Anti-HBs IgG antibody level in serum (ELISA absorbance at 415 nm) ([1]; 3 W): 0.071 ± 0.004 O.D 415 nm
- Anti-HBs IgG antibody level in serum (ELISA absorbance at 415 nm) [1, 5]: 0.426 ± 0.000 O.D 415 nm
- Anti-HBs IgG antibody level in serum (ELISA absorbance at 415 nm) [1, 6]: 0.470 ± 0.010 O.D 415 nm
- Growth inhibitory ratio of L-1210 mouse leukemia cells [2]: 90.2%
- Anti HA serum antigen value (average value ± S.D.) [3, 7]: 0.001 ± 0.001 O.D 415 nm
- Anti HA serum antigen value (average value ± S.D.) ([3]; 2 W): 0.112 ± 0.003 O.D 415 nm
- Anti HA serum antigen value (average value ± S.D.) ([3]; 3 W): 0.286 ± 0.001 O.D 415 nm
- Anti HA serum antigen value (average value ± S.D.) [3, 5]: 1.039 ± 0.010 O.D 415 nm
- Anti HA serum antigen value (average value ± S.D.) [3, 6]: 1.128 ± 0.026 O.D 415 nm

Structure (SMILES): CCCCCCCCCCCCCCC(CCCCCCCCCCCCCC)C(=O)S[C@@H]1O[C@H](COC(=O)CCCCCCCCC)[C@@H](O)[C@H](O[C@H](C)C(=O)N[C@@H](C)C(=O)N[C@H](CCC(=O)OC)C(N)=O)[C@H]1NC(C)=O [Example 8, N-[2-0-{2-Acetamido-2,3-dideoxy-6-0-decanoyl-1-S-(2-tetradecylhexadecanoyl)-1-thio-β-D-glucopyranos-3--yl}-D-lactoyl]-L-alanyl-D-isoglutamine methylester]
- Anti-HBs IgG antibody level in serum (ELISA absorbance at 415 nm) [1, 4]: 0 O.D 415 nm
- Anti-HBs IgG antibody level in serum (ELISA absorbance at 415 nm) ([1]; 2 W): 0.067 ± 0.003 O.D 415 nm
- Anti-HBs IgG antibody level in serum (ELISA absorbance at 415 nm) ([1]; 3 W): 0.114 ± 0.002 O.D 415 nm
- Anti-HBs IgG antibody level in serum (ELISA absorbance at 415 nm) [1, 5]: 0.897 ± 0.012 O.D 415 nm
- Anti-HBs IgG antibody level in serum (ELISA absorbance at 415 nm) [1, 6]: 0.845 ± 0.016 O.D 415 nm
- Growth inhibitory ratio of L-1210 mouse leukemia cells [2]: 57.9%
- Anti HA serum antigen value (average value ± S.D.) [3, 7]: 0.001 ± 0.001 O.D 415 nm
- Anti HA serum antigen value (average value ± S.D.) ([3]; 2 W): 0.105 ± 0.005 O.D 415 nm
- Anti HA serum antigen value (average value ± S.D.) ([3]; 3 W): 0.246 ± 0.004 O.D 415 nm
- Anti HA serum antigen value (average value ± S.D.) [3, 5]: 1.246 ± 0.019 O.D 415 nm
- Anti HA serum antigen value (average value ± S.D.) [3, 6]: 1.267 ± 0.023 O.D 415 nm

Structure (SMILES): CCCCCCCCCCCCCCC(CCCCCCCCCCCCCC)C(=O)S[C@@H]1O[C@H](COC(=O)CCCCCCCCCCCCC)[C@@H](O)[C@H](O[C@H](C)C(=O)N[C@@H](C)C(=O)N[C@H](CCC(=O)OC)C(N)=O)[C@H]1NC(C)=O [Example 9, N-[2-0-{2-Acetamido-2,3-dideoxy-6-0-tetradecanoyl-1-S-(2-tetradcylhexadecanoyl)-1-thio-β-D-glucopyranos-3-yl}-D-lactoyl]-L-alanyl-D-isoglutamine methylester]
- Anti-HBs IgG antibody level in serum (ELISA absorbance at 415 nm) [1, 4]: 0.014 ± 0.002 O.D 415 nm
- Anti-HBs IgG antibody level in serum (ELISA absorbance at 415 nm) ([1]; 2 W): 0.092 ± 0.003 O.D 415 nm
- Anti-HBs IgG antibody level in serum (ELISA absorbance at 415 nm) ([1]; 3 W): 0.149 ± 0.001 O.D 415 nm
- Anti-HBs IgG antibody level in serum (ELISA absorbance at 415 nm) [1, 5]: 0.681 ± 0.012 O.D 415 nm
- Anti-HBs IgG antibody level in serum (ELISA absorbance at 415 nm) [1, 6]: 0.702 ± 0.006 O.D 415 nm
- Growth inhibitory ratio of L-1210 mouse leukemia cells [2]: 58.5%
- Anti HA serum antigen value (average value ± S.D.) [3, 7]: 0.019 ± 0.002 O.D 415 nm
- Anti HA serum antigen value (average value ± S.D.) ([3]; 2 W): 0.168 ± 0.005 O.D 415 nm
- Anti HA serum antigen value (average value ± S.D.) ([3]; 3 W): 0.392 ± 0.006 O.D 415 nm
- Anti HA serum antigen value (average value ± S.D.) [3, 5]: 1.342 ± 0.005 O.D 415 nm
- Anti HA serum antigen value (average value ± S.D.) [3, 6]: 1.329 ± 0.026 O.D 415 nm

Structure (SMILES): CCCCCCCCCCCCCCCCCC(=O)OC[C@H]1O[C@@H](SC(=O)C(CCCCCCCCCCCCCC)CCCCCCCCCCCCCC)[C@H](NC(C)=O)[C@@H](O[C@H](C)C(=O)N[C@@H](C)C(=O)N[C@H](CCC(=O)OC)C(N)=O)[C@@H]1O [Example 10, N-[2-0-{2-Acetamido-2,3-dideoxy-6-0-octadecanoyl-1-S-(2-tetradecylhexadecanoyl)-1-thio-β-D-glucopyranos-3-yl}-D-lactoyl]-L-alanyl-D-isoglutamine methylester]
- Anti-HBs IgG antibody level in serum (ELISA absorbance at 415 nm) [1, 4]: 0 O.D 415 nm
- Anti-HBs IgG antibody level in serum (ELISA absorbance at 415 nm) ([1]; 2 W): 0.061 ± 0.002 O.D 415 nm
- Anti-HBs IgG antibody level in serum (ELISA absorbance at 415 nm) ([1]; 3 W): 0.114 ± 0.003 O.D 415 nm
- Anti-HBs IgG antibody level in serum (ELISA absorbance at 415 nm) [1, 5]: 0.778 ± 0.024 O.D 415 nm
- Anti-HBs IgG antibody level in serum (ELISA absorbance at 415 nm) [1, 6]: 0.878 ± 0.009 O.D 415 nm
- Growth inhibitory ratio of L-1210 mouse leukemia cells [2]: 76.6%
- Anti HA serum antigen value (average value ± S.D.) [3, 7]: 0.005 ± 0.001 O.D 415 nm
- Anti HA serum antigen value (average value ± S.D.) ([3]; 2 W): 0.153 ± 0.003 O.D 415 nm
- Anti HA serum antigen value (average value ± S.D.) ([3]; 3 W): 0.280 ± 0.000 O.D 415 nm
- Anti HA serum antigen value (average value ± S.D.) [3, 5]: 1.149 ± 0.018 O.D 415 nm
- Anti HA serum antigen value (average value ± S.D.) [3, 6]: 1.203 ± 0.014 O.D 415 nm

Structure (SMILES): CCCCCCCCCCCCCC(=O)O[C@H](CCCCCCCCCCC)CC(=O)O[C@H]1O[C@H](COC(=O)CCCCCCCCC)[C@@H](O)[C@H](O[C@H](C)C(=O)N[C@@H](C)C(=O)N[C@H](CCC(=O)OC)C(N)=O)[C@H]1NC(C)=O [Example 11, N-[2-0-{2-Acetamido-2,3-dideoxy-6-0-decanoyl-1-0((3R)-3-tetradecanoyloxytetradecanoyl)-α-D-glucopyranos-3-yl}-D-lactoyl]-L-alanyl-D-isoglutaminemethylester]
- Anti-HBs IgG antibody level in serum (ELISA absorbance at 415 nm) [1, 4]: 0.010 ± 0.002 O.D 415 nm
- Anti-HBs IgG antibody level in serum (ELISA absorbance at 415 nm) ([1]; 2 W): 0.083 ± 0.002 O.D 415 nm
- Anti-HBs IgG antibody level in serum (ELISA absorbance at 415 nm) ([1]; 3 W): 0.124 ± 0.003 O.D 415 nm
- Anti-HBs IgG antibody level in serum (ELISA absorbance at 415 nm) [1, 5]: 0.602 ± 0.009 O.D 415 nm
- Anti-HBs IgG antibody level in serum (ELISA absorbance at 415 nm) [1, 6]: 0.716 ± 0.020 O.D 415 nm
- Growth inhibitory ratio of L-1210 mouse leukemia cells [2]: 59.7%
- Anti HA serum antigen value (average value ± S.D.) [3, 7]: 0 O.D 415 nm
- Anti HA serum antigen value (average value ± S.D.) ([3]; 2 W): 0.073 ± 0.000 O.D 415 nm
- Anti HA serum antigen value (average value ± S.D.) ([3]; 3 W): 0.160 ± 0.005 O.D 415 nm
- Anti HA serum antigen value (average value ± S.D.) [3, 5]: 1.059 ± 0.016 O.D 415 nm
- Anti HA serum antigen value (average value ± S.D.) [3, 6]: 1.050 ± 0.003 O.D 415 nm

Source: patent publication US5075287A, “Muramyl peptide derivatives and immunoregulating compositions containing them” (priority 1989, dated 1991)
